In ChEMBL document CHEMBL4402568, “Antiepileptic Drug Carbamazepine Binds to a Novel Pocket on the Wnt Receptor Frizzled-8” (J Med Chem, 2020):
Calls of active or inactive are those of the source. No cut-off for these calls is given here.

Tests used:
[1] = biological target: Frizzled-8 (Mus musculus) (UniProt Q61091); assay: Binding affinity to immobilized mouse C-terminal Rhinovirus 3C cleavage site-fused 6xHis-tagged Frizzled-8 CRD (Q33 to G173 resideus) transfected with pDisplay_BirA-ER plasmid in HEK293T cells for biotinylation assessed as protein-compound complex formation at 5 to 50 uM by surface plasmon resonance assay
[2] = biological target: Frizzled-8 (Mus musculus) (UniProt Q61091); settings: 8 to 64 uM
Description: Inhibition of full length mouse Frizzled-8 transfected in Frizzled-1/2/7 knockout HEK293T cells using lentiviral expression system cotransfected with Renilla luciferase assessed as reduction in Wnt3a signaling by measuring luciferase activity at 8 to 64 uM measured after 24 hrs by Dual-Glo luciferase reporter assay

[3] = biological target: Frizzled-7 (Homo sapiens) (UniProt O75084); assay: Binding affinity to immobilized human Frizzled-7 CRD (Q33 to G173 resideus) transfected with pDisplay_BirA-ER plasmid in HEK293T cells for biotinylation by surface plasmon resonance assay
[4] = biological target: Frizzled-5 (Homo sapiens) (UniProt Q13467); assay: Binding affinity to immobilized human Frizzled-5 CRD (P31 to Y150 resideus) transfected with pDisplay_BirA-ER plasmid in HEK293T cells for biotinylation by surface plasmon resonance assay
Frizzled-5 (Homo sapiens), sequence (Q13467 whole entry): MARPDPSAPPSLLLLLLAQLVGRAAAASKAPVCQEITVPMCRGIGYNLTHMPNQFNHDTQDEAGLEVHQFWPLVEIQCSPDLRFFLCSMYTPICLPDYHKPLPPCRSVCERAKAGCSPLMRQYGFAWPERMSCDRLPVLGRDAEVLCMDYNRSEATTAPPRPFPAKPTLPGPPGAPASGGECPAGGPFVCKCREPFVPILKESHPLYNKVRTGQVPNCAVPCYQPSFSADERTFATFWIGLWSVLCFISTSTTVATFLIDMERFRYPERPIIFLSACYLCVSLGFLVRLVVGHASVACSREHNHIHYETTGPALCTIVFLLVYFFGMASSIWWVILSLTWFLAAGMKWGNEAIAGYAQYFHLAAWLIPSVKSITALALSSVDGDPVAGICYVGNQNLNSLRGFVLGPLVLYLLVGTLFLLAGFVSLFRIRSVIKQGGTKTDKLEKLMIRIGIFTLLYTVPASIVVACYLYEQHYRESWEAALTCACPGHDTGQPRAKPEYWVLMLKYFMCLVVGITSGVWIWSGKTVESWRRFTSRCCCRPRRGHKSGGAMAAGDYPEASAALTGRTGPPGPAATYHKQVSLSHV

Frizzled-8 (Mus musculus), sequence (Q61091 whole entry, the tested form may be a part): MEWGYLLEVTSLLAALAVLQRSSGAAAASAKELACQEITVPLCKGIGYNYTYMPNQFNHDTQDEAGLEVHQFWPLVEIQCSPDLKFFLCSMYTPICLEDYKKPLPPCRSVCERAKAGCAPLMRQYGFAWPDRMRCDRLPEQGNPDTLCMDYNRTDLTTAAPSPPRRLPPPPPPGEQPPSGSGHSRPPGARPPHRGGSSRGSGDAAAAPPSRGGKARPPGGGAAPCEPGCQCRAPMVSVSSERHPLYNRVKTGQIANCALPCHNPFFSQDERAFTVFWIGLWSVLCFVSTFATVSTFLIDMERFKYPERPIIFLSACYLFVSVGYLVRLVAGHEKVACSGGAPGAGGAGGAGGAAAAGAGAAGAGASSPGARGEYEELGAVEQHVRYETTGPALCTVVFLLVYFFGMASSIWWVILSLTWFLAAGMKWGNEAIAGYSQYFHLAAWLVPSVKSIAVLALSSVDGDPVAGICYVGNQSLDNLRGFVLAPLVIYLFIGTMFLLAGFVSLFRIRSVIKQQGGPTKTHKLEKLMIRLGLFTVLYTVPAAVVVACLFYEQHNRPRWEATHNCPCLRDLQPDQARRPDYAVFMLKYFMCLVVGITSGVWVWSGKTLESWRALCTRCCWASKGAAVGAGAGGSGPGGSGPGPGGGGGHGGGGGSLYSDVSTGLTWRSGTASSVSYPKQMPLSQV

| Compound | Activity [1] | inhibition [2] | Activity [3] | Activity [4] |
| --- | --- | --- | --- | --- |
| CCN(CC)CCCC(C)Nc1c2ccc(Cl)cc2nc2ccc(OC)cc12 (stereo not given) | inactive |  |  |  |
| NC(=O)N1c2ccccc2C=Cc2ccccc21 | Active | Active | inactive | inactive |
